Our source for the melting point values is a melting point compilation (Tetko et al.; mined from patent text by program, amines drawn as free bases though some values may be those of a salt).

As usually defined, the melting point is the temperature of the solid-liquid transition.

The compound `COC(=O)C(Br)c1ccc(OCCCOc2ccc(Cl)cc2)cc1` (stereo not given) came in with a melting point of 49 to 53 °C.
In the case of `CC(=O)c1ccc2c(c1)C(C(Cl)(Cl)Cl)OC(C(Cl)(Cl)Cl)O2` (stereo not given), the melting point lay in the range of 104 to 105 °C.
`CC(C)C1=NC(c2ccccc2)=NC(c2ccc(F)cc2)C1=CO` (stereo not given) had a melting point of 183 to 184 °C.
Take `Cc1ccc(Cl)cc1-n1c(CF)nc2ccc(N)cc2c1=O`: the melting point fell in the range of 214 to 216 °C.
In the case of `C#CCOC(=O)Cn1cccc1-c1nc(-c2ccc(OC)cc2)c(-c2ccc(OC)cc2)s1`, the melting point was in the range of 100 to 103 °C.
In the case of `CC(N)Cn1cc(-c2ccccc2)c2ccccc2c1=O` (stereo not given) it was 104 °C; in that of `COC(OC)c1cc(C)nc(NC(=O)NS(=O)(=O)c2ccccc2Cl)n1`, 150 to 153 °C; in that of `CSc1ccc(-c2cc(C(=O)O)nn2-c2ccc(F)cc2)cc1`, 199 to 200 °C.
In the case of `Cc1noc2cc3c(cc12)C1(CO3)C(=O)N(Cc2ccccn2)c2ccccc21` (stereo not given) it was 142 to 143 °C.
Consider `CC(=O)Cc1ccc(OCc2ccccc2)cc1`, for which the melting point was 50 to 54 °C.
Compound `CN1CCN(c2ccc(C(=O)O)cc2S(=O)(=O)Nc2ccccc2)CC1` came in with a melting point of 252 to 253 °C.
For the compound `N#CC(=C1CCCN1)c1ccc(Cl)cc1`, the melting point fell in the range of 135 to 137 °C.
Turning to `O=C(O)c1ccccc1Oc1ccc2ccccc2c1`, the melting point was 139 to 142 °C.
In the case of `CN1C2CCC1CC(NC(=O)c1cc(Cl)cc3oc(-c4ccccc4)nc13)C2` (stereo not given), the melting point lay in the range of 187 to 190 °C.
As for `CSc1cc(C)nc(SC)c1NC(=O)CCCCCCCSc1nc2c(C)c(Cl)cc(C(C)C)c2o1`, the melting point was in the range of 128 to 131 °C.
Compound `CC1CN(Cc2ccccc2)CC(NC(=O)c2n[nH]c3ccccc23)CN1C` (stereo not given) had a melting point of 162 to 163 °C.
The compound `CCCCCCCCOC(=O)NCCCCCCNC(=O)OCCCCCCCC` showed a melting point of 106 to 107 °C.
The compound `N#Cc1ccc(Oc2nc(Nc3cccc(C(=O)O)c3)nc(Oc3ccccc3)n2)cc1` displayed a melting point of 150 °C.
Turning to `CC(O)c1cc2cc(O)c(Cl)c(Cl)c2s1` (stereo not given), the melting point fell in the range of 173 to 174 °C.
In the case of `Cc1cccc(NC(=O)c2cc(C#N)cc(C)n2)n1` it was 244 °C.
The compound `O=C(NNS(=O)(=O)c1ccccc1)c1ccccc1Oc1ccccc1` registered a melting point of 149 to 150 °C.
`CC(C)c1cc(-c2ccc3c(c2)OCO3)nc(Cl)c1C#N` showed a melting point of 171 to 173 °C.
Take `Cc1ccn2ncc(C(=O)Nc3cc(Cl)ccc3OC3CCC(O)CC3)c2n1` (stereo not given): the melting point fell in the range of 179 to 182 °C.
`CC(C)(C)[N+]([O-])=Cc1ccc(S(N)(=O)=O)cc1` had a melting point of 219 °C.
In the case of `C[C@H](NC(=O)C[C@@H](CC(=O)O)c1ccc(F)cc1)c1ccccc1` it was 195 to 196 °C; in that of `CC(=O)c1ccc(S(=O)(=O)NCC(=O)O)cc1`, 213 to 215 °C.
Consider `CCOC(=O)c1c(C(F)(F)C(F)(F)F)[nH]c(C(F)(F)C(F)(F)F)c1C(=O)OCC`, for which the melting point lay in the range of 64.5 to 65.5 °C.
`N#Cc1ccc(Oc2ncccc2C(=O)O)cc1`: the melting point lay within 198 to 200 °C.
With `Cc1n[nH]cc1-c1cccc2c1nnn2-c1ccnc(NC2CCC(C(=O)N3CCC(O)CC3)CC2)n1` (stereo not given) the figure was 190 to 195 °C; with `N#Cc1ccc(F)cc1-c1ccco1`, 55 to 56 °C.
Regarding `CN(Cc1cc2c3c(c1)c(=O)c(C(=O)NCc1ccc(F)cc1)cn3CC(=O)N2C)C[C@@H](O)c1cnccn1`, the melting point was 108 to 110 °C.
For `COc1cc(N2CCC(N3CCN(C)CC3)CC2)ccc1Nc1ncc2ccc(-c3ccccc3S(=O)(=O)N(C)C)n2n1`, the melting point was in the range of 198 to 205 °C.
Compound `O=CC12CC(c3ccccc31)c1ccccc12` came in with a melting point of 102 °C.
As for `N#Cc1cccc(N2C(=O)CC(=O)Nc3c2ccc2ccccc32)c1`, the melting point was 220 to 222 °C.
Turning to `CNc1cn(-c2cncc(F)c2)nc1C`, the melting point was 142 to 144 °C.
